The text below walks through data of ChEMBL document CHEMBL1201862, “PubChem BioAssay data set” (2004).

The nature of test [1]: HIV-1 Vif–A3G interaction blockers – biochemical, TR-FRET, GST-Vif 1-94, biotin-A3G peptide, dose response retest, primary screen (AID 1117319).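 Note: TR-FRET signal of purified GST-Vif binding a biotinylated A3G peptide; inhibitors lower the FRET signal by blocking Vif and A3G binding.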 Type of test: functional.
The next test addresses Protein Tat (Human immunodeficiency virus type 1 group M subtype B (isolate HXB2)(HIV-1), UniProt P04608). The format is functional.
The target of the next test is NADPH oxidase 1 (Homo sapiens, UniProt Q9Y5S8). Nature of the test: Late-stage luminescence-based cell-based dose response assay to identify inhibitors of NADPH oxidase 1 (NOX1): Synthesized analogs 2. Type of test: functional.
In test [2] the target is 5-hydroxytryptamine receptor 1A (Homo sapiens, UniProt P08908). The format is functional.
Another test has as its target Nonstructural protein 1 (Influenza A virus, UniProt Q194T2). Type of test: functional, Influenza A virus (A/California/07/2009(H1N1)).
A short description of test [3]: viability loss in THP-1 monocytes – THP-1 cells, cytotoxicity control for Vif-APOBEC3G degradation inhibitor project, dose response (AID 1117359). Type of test: functional. The conditions noted are these: THP-1.
In test [4] the target is Glutathione-S-transferase (Schistosoma japonicum, UniProt Q26513). The test can be described thus: GST-antibody interaction or FRET quenching – biochemical, TR-FRET, artefact control for Vif-APOBEC3G degradation inhibitor project, dose response (AID 1117362). Type of test: functional.
Test [5] concerns the target Ras and Rab interactor 1/Tyrosine-protein kinase ABL1 (Homo sapiens, UniProt P00519+Q13671). The format is functional.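 Note: biochemical TR-FRET dose-response test measuring inhibition of binding between Rin1 and Abl proteins.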
Test [6] has as its target RNA-editing ligase 1, mitochondrial (Trypanosoma brucei brucei, UniProt P86926). The test can be described thus: inhibition of trypanosome RNA editing ligase – biochemical, fluorescence, Trypanosoma brucei, dose response (AID 1117295). The format is functional.
Test [7] can be described thus: P. falciparum Dd2 growth inhibitors, dose response, SYBR Green, cherry-picked samples (AID 1159567). Type of test: functional, cell-based.
A short description of test [8]: toxicity to human HepG2 hepatoma cells – cell-based, plate reader, dry powder samples, cytotoxicity control, dose response (AID 1159569).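 Note: inhibitor potency with signal falling toward the positive control level.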 Type of test: functional.
Test [9] is described as follows: Plasmodium falciparum Dd2 Sybr green parasite growth Measured in Cell-Based and Microorganism Combination System Using Plate Reader - 2153-01_Inhibitor_Dose_DryPowder_Activity_Set3. Type of test: functional.
A short description of test [10]: growth inhibition of PfATP4-mutant resistant parasites – NITD609-resistant line, SYBR Green, dry powder, dose response (AID 1159571).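 Note: parasites synchronized at ring stage by sorbitol before testing.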 The format is functional, cell-based.
The nature of test [11]: growth inhibition of yeast DHODH-expressing 3D7 parasites – SYBR Green, dry powder samples, dose response (AID 1159570).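 Note: parasite growth measured after 72 hours of compound exposure.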 The format is functional, cell-based.
The nature of test [12]: Dd2 malaria parasite growth inhibition potency – SYBR Green, dry powder samples, dose response (AID 1159566).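 Note: potency for growth inhibition with lower SYBR green DNA signal.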 The format is functional, cell-based.
Test [13] is described as follows: Potency on glucagon-like peptide 1 release, dose-response in NCI-H716 cell line, half maximal inhibitory concentration (AID 1117344). The format is functional, cell-based.
Test [14] is described as follows: glucagon-like peptide-1 release potency in STC-1, concentration-response, half-maximal inhibitory concentration in the STC-1 line (AID 1117345). The format is functional, cell-based.
The target of a further test is Large T antigen (Simian virus 40, UniProt P03070). The format is functional, Betapolyomavirus macacae.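 Note: Confirmatory-stage PubChem screen for compounds that inhibit SV40 T antigen.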

Active and inactive are the calls of the source. A value given as a limit tells only on which side of the number the result lay.

Sequence of Nonstructural protein 1 (Q194T2 whole entry): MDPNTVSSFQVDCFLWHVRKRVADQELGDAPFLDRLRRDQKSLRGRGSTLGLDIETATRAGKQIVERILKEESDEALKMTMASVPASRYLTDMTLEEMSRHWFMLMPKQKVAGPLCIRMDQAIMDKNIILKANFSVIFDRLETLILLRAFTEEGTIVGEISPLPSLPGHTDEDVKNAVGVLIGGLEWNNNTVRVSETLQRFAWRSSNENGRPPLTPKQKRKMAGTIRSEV
Sequence of NADPH oxidase 1 (Q9Y5S8 whole entry): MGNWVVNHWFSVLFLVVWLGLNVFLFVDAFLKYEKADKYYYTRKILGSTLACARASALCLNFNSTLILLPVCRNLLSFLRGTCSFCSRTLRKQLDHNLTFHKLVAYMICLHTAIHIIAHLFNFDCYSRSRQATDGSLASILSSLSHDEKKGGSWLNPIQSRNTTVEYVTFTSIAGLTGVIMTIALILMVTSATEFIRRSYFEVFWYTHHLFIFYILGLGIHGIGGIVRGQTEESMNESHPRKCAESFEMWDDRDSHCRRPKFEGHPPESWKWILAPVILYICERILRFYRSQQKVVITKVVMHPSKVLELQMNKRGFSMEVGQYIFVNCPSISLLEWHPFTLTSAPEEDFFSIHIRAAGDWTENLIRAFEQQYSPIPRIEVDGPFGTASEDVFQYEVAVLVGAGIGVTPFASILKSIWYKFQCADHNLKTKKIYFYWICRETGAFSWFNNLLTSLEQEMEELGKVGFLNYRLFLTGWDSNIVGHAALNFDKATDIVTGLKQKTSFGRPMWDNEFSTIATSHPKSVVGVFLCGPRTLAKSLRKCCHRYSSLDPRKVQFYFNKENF
Sequence of Large T antigen (P03070 whole entry): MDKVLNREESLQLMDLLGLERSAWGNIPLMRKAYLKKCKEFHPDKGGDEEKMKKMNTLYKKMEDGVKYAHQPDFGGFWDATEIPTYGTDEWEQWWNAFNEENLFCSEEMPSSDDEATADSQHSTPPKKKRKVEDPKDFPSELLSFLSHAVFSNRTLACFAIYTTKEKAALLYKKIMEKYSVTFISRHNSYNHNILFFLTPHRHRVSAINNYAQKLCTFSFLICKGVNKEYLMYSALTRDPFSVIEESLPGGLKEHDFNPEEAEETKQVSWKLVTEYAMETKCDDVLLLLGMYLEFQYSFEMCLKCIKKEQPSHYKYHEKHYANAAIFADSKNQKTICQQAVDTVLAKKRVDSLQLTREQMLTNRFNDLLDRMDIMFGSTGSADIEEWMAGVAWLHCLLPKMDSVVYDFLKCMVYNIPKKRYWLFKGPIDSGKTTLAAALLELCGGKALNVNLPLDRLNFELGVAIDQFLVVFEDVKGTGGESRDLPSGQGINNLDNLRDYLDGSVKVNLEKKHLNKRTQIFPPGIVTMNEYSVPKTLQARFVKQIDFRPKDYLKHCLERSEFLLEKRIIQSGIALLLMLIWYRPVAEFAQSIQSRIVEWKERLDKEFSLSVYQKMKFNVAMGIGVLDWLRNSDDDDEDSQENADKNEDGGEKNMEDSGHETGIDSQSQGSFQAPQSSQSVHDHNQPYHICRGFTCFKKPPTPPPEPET
Sequence of Ras and Rab interactor 1/Tyrosine-protein kinase ABL1 (P00519 whole entry): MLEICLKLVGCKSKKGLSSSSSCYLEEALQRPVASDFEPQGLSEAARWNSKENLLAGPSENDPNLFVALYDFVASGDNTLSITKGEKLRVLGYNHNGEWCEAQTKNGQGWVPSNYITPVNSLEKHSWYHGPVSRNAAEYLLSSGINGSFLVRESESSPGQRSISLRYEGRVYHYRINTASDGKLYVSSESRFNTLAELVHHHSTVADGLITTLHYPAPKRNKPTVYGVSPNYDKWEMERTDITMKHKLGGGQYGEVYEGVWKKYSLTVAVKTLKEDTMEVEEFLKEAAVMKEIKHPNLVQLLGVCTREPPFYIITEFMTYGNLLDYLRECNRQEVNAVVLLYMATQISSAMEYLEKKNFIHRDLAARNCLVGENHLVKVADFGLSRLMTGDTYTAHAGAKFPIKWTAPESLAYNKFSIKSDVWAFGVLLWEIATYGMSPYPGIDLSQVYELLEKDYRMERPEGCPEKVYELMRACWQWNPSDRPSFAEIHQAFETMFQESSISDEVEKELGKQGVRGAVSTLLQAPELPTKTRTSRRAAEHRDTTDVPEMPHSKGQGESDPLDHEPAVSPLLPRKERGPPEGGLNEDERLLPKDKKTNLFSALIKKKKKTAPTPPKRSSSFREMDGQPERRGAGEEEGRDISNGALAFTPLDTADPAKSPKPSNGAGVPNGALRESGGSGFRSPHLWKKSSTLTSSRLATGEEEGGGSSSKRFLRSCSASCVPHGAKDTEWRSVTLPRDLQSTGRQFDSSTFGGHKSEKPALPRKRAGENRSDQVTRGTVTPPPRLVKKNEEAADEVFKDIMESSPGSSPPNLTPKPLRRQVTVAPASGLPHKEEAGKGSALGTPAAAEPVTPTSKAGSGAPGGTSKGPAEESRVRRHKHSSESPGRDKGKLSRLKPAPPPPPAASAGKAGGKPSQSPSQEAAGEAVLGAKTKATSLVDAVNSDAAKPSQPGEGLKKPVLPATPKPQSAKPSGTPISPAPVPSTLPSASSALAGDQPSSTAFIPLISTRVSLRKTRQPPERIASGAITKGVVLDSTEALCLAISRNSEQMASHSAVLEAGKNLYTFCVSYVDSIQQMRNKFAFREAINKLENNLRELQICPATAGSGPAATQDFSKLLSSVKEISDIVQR
Sequence of Ras and Rab interactor 1/Tyrosine-protein kinase ABL1 (Q13671 whole entry): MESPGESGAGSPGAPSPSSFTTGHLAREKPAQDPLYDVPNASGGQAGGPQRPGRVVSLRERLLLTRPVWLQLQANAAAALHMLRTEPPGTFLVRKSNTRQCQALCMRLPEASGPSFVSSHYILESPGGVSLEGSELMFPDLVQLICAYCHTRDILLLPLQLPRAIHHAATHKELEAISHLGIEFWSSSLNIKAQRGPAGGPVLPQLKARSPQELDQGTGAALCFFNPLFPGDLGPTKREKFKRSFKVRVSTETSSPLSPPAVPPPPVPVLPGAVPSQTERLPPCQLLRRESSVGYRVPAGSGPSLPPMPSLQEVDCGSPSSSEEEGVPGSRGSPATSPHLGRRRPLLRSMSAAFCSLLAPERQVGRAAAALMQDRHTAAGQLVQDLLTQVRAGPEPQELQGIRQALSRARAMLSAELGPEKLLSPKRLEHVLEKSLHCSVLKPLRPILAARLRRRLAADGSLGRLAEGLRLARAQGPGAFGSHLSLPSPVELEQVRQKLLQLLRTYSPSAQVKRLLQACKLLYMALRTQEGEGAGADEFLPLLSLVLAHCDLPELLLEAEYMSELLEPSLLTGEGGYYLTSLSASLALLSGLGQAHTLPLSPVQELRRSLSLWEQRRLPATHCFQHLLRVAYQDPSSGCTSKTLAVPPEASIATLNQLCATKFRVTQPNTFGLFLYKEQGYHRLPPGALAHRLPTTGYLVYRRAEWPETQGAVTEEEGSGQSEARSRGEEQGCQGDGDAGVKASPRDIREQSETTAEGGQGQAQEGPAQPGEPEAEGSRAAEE
Sequence of Glutathione-S-transferase (Q26513 whole entry): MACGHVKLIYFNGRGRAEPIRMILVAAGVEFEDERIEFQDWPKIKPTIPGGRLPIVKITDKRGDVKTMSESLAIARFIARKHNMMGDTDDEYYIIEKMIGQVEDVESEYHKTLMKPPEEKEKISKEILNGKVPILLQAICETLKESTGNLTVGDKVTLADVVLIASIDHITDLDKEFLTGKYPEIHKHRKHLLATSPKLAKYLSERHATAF
Sequence of RNA-editing ligase 1, mitochondrial (P86926 whole entry): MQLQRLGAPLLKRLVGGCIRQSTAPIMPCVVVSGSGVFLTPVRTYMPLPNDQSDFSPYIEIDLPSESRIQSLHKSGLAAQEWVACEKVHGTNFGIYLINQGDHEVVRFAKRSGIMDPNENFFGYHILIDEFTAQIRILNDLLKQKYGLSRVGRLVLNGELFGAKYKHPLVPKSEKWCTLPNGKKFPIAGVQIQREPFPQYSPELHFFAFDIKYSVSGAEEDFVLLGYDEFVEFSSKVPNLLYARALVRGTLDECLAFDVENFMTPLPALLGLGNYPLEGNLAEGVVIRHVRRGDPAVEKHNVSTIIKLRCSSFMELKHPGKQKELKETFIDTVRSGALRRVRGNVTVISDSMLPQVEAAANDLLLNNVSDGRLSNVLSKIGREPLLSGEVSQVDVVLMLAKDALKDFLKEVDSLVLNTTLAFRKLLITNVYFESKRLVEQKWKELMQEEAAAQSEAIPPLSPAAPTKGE
Sequence of 5-hydroxytryptamine receptor 1A (P08908 whole entry): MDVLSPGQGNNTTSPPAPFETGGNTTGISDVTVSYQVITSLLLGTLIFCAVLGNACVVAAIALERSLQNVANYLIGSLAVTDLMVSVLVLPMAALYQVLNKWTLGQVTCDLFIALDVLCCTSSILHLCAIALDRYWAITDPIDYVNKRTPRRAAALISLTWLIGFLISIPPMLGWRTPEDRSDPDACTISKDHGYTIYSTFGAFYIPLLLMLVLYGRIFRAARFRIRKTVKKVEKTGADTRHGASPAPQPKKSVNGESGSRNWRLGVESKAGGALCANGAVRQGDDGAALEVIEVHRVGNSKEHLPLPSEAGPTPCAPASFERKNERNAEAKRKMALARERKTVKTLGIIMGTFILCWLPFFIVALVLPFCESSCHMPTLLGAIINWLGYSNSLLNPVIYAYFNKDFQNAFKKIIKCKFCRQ
Sequence of Protein Tat (P04608 whole entry): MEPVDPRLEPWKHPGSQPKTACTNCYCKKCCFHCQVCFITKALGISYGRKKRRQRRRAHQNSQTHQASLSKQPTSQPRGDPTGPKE

As for `COc1ccc(-n2c(Cc3cccn3C)nnc2SCC(N)=O)cc1`, the IC50 (in [1]; on Protein Tat) was > 100 µM (active) each time.
Consider `CN1c2ccccc2Sc2cc(NC(=O)CCl)ccc21`, for which, at NADPH oxidase 1, the concentration for half-maximal inhibition (IC50) is 0.653 µM (active).
`CCOC(=O)c1oc2ccccc2c1NC(=O)c1cc(OC)cc(OC)c1`: the EC50 in [2] is recorded as > 50 µM (not active).
On to `CCc1cccc(NC(=O)CCCCCC2NC(=O)NC2C)c1` (stereo not drawn), for which the 50% inhibitory concentration (IC50) was 0.825 µM (active) on Nonstructural protein 1, 9.93 µM (active) in [4] and 0.00897 µM (active) in test [5]. The cytotoxic concentration (CC50) in test [3] is > 40 µM (active).
Consider `COC(=O)C1=C(C)N(Cc2ccccc2C(F)(F)F)C(NCc2ccc(C(F)(F)F)cc2)=NC1c1cccc(F)c1` (stereo not drawn), for which the IC50 in test [6] is > 96.6 µM (inactive).
For the compound `N#C[C@@H]1[C@H](c2ccc(C3=CCCC3)cc2)[C@@H](CO)N1C(=O)NC1CCCC1`, the AC50 was 0.615 µM (active) in test [7]; 82 µM (active) in test [8]; 0.647 µM (active) in [9]; 0.694 µM (active) in test [10]; 15.8 µM (active) in [11]; 0.395 µM (active) in test [12].
Consider `O=C1OC2(c3ccccc31)c1cc(I)c(O)c(I)c1Oc1c2cc(I)c(O)c1I` [ERYTHROSINE], for which the results for the IC50 (in [13]; in test [14]; on Large T antigen) were > 40 µM (inactive), 2.93 µM (active) and 13 µM (active), respectively.
